How the values were obtained:
[1] = test system: E. coli cell-free transcription-translation system; format: biochemical; conditions: for IC50: read-out: IC50 for inhibition of protein synthesis (firefly luciferase)
[2] = test system: E. coli cell-free transcription-translation system; format: biochemical; conditions: bacterial system

Substance	IC50 [1] [µM]	stimulation of protein synthesis (luciferase) [1] [%]	combination effect with antibiotic on inhibition of protein synthesis ([2]; combination with streptomycin or other related antibiotics)	increase of potency in inhibiting protein synthesis ([2]; in the presence of 3 μM streptomycin) [fold]	inhibition of synthesis of GFP [1]
AMSAPIP [BLS18]	137	–	–	–	–
SYPDLHL [BLS25]	–	20	–	–	–
AGAAMSH [BLS15]	15	–	synergistic action	25	shown to inhibit synthesis of GFP
SILPYPY [BLS26]	–	20	–	–	–
